Laboratory results published in article doi:10.1101/2024.04.17.589937v1 (biorxiv, 2024).

Columns and labels:
MDCK = conditions: read-out: MDCK CC50, dog
[1] = system: Human rhinovirus B14 RV-B 14; test: microbe, parasite or virus in culture; conditions: H1-HeLa, read-out: RV EC50 (µM)
LLC-MK2 = conditions: monkey, llc-mk2 cells
EV-D68 [2] = conditions: read-out: RD CC50; human, rd cells
in vitro = conditions: human, a549-hace2 cells
[3] = system: Human metapneumovirus hMPV A1; test: microbe, parasite or virus in culture; conditions: LLC-MK2, read-out: hMPV A1 EC50 (µM)
[4] = system: Human rhinovirus A16 RV-A 16; conditions: read-out: H1 HeLa CC50, h1 hela cells, 96 h
[5] = system: Human rhinovirus A16 RV-A 16; test: microbe, parasite or virus in culture; conditions: H1-HeLa, read-out: RV EC50 (µM)
[6] = system: Influenza A virus FluA H1N1; test: microbe, parasite or virus in culture; conditions: H1N1, MDCK, read-out: FluA H1N1 EC50 (µM)
EV-D68 [7] = test: microbe, parasite or virus in culture; conditions: Enterovirus D, EVD68, RD, read-out: EV EC50 (µM)
Enterovirus A71 EV-71 = test: microbe, parasite or virus in culture; conditions: Enterovirus A, EV71, RD, read-out: EV EC50 (µM)
DNA Pol γ = DNA Pol γ (Homo sapiens, UniProt P54098); test: human DNA polymerase inhibition assay; format: biochemical
DNA Pol α = DNA Pol α (Homo sapiens, UniProt P09884); test: human DNA polymerase inhibition assay; format: biochemical
[8] = target: T1, human mitochondrial RNA polymerase (POLRMT) (Homo sapiens, UniProt O00411); test: biochemical
[9] = target: T1, human mitochondrial RNA polymerase (POLRMT); test: single nucleotide incorporation rate assay; format: biochemical

T1 sequence (O00411 42-1230): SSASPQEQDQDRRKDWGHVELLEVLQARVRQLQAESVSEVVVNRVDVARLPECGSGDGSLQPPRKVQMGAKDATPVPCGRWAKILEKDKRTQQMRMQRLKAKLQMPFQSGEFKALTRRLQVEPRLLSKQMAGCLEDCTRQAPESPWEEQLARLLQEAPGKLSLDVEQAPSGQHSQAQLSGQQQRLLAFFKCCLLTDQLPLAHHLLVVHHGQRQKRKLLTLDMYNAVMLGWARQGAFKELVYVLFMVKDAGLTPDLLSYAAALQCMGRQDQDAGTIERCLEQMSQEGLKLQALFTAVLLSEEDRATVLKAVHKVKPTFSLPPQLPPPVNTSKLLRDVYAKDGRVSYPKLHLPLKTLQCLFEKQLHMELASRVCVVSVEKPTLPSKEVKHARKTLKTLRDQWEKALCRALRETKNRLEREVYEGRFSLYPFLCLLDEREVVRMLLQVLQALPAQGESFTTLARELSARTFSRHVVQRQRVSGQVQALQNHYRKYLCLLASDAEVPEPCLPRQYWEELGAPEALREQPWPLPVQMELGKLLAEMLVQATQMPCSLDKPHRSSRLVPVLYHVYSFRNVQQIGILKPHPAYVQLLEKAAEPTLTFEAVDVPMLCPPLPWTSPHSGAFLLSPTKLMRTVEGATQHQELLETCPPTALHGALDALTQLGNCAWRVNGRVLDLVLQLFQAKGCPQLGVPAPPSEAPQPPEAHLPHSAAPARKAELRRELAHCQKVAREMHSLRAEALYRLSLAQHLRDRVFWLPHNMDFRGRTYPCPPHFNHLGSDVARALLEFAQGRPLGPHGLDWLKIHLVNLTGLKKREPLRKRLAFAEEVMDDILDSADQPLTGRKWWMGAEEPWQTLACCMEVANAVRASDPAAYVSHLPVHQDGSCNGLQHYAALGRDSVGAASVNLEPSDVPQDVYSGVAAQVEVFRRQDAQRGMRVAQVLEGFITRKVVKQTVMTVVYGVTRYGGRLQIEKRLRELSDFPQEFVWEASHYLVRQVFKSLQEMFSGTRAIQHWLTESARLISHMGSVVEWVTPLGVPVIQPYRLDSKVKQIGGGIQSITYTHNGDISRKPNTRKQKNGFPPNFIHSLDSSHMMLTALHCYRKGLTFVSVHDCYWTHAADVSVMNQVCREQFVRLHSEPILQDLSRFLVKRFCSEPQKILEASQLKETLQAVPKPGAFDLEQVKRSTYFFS
DNA Pol α, sequence (P09884 whole entry): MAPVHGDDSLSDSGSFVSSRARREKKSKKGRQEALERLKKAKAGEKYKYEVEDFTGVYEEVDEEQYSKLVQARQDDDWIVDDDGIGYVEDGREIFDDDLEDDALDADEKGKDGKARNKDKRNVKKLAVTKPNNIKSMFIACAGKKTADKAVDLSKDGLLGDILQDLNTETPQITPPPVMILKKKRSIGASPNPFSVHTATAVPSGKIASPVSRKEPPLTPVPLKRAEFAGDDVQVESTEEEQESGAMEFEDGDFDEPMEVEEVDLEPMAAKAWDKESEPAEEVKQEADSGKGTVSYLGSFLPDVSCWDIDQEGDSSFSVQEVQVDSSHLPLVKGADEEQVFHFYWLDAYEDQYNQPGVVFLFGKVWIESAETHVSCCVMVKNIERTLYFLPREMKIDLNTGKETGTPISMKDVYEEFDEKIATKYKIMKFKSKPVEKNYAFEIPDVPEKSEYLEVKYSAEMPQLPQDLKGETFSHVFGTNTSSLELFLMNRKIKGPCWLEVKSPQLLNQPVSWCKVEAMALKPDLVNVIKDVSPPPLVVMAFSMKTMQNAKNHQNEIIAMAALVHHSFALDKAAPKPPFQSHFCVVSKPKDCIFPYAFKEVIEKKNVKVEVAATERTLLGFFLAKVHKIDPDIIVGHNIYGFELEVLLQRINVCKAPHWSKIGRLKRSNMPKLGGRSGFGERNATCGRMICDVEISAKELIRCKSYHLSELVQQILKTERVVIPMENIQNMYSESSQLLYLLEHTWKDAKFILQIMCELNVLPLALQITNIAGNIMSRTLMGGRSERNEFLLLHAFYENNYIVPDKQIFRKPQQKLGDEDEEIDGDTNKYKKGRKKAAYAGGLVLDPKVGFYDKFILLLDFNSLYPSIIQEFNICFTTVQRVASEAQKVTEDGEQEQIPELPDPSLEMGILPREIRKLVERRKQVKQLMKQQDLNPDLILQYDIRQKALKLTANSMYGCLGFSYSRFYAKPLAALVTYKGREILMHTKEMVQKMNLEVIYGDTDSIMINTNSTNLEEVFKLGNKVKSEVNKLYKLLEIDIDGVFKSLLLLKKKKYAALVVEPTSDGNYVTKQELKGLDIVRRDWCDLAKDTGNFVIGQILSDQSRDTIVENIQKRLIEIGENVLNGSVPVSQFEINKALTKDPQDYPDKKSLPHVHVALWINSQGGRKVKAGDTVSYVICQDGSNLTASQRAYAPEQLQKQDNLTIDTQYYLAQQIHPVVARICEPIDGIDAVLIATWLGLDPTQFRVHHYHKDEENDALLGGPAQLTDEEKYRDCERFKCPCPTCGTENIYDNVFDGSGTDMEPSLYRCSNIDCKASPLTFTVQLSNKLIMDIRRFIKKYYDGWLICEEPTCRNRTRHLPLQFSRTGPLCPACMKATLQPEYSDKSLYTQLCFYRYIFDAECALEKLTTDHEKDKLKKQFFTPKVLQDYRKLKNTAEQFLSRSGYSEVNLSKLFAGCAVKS
DNA Pol γ, sequence (Q9UHN1 26-485): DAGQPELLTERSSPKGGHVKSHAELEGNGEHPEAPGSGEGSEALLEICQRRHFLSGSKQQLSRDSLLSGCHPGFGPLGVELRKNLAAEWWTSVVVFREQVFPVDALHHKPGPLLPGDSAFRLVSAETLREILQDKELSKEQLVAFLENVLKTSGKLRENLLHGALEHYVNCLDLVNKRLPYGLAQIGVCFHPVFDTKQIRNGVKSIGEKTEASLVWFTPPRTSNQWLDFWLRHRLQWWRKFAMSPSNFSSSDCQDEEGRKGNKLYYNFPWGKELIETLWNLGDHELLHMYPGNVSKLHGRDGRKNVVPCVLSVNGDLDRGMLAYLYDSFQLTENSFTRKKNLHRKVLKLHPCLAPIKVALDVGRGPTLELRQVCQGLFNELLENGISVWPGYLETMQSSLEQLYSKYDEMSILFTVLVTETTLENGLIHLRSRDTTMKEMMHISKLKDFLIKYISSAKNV
DNA Pol γ, sequence (P54098 whole entry): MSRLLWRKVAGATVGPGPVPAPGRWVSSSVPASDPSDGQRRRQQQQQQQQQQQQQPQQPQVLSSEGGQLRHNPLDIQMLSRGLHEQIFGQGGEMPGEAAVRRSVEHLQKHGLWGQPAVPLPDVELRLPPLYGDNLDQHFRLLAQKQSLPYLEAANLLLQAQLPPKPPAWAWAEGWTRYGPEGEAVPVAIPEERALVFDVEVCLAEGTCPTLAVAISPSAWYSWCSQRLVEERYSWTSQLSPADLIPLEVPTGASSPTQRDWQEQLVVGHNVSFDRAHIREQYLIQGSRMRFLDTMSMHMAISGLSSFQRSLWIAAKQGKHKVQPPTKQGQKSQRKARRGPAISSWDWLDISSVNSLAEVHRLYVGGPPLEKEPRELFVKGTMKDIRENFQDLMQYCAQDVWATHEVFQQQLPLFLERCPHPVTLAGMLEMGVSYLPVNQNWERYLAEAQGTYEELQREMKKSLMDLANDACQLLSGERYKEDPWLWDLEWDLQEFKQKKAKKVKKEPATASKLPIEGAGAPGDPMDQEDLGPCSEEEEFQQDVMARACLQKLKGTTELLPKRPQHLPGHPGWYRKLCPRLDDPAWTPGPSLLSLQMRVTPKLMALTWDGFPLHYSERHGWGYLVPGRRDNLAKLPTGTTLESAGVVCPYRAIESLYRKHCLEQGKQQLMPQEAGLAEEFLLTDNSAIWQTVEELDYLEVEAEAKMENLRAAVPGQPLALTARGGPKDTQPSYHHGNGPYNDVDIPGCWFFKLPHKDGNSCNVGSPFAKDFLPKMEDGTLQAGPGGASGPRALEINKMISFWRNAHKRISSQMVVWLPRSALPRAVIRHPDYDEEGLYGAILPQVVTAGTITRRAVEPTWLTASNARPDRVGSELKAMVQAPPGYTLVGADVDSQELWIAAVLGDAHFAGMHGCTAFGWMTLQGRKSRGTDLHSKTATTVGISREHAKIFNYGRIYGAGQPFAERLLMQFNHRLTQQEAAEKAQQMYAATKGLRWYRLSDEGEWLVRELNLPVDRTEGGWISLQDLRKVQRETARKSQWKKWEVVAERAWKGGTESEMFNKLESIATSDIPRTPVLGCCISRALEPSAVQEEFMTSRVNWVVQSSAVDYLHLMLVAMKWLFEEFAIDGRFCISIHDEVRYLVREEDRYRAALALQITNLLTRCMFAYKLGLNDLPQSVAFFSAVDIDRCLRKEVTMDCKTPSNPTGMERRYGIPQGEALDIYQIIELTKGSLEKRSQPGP

Row | SMILES | CC50 (MDCK) [µM] | EC50 [1] [µM] | CC50 (LLC-MK2) [µM] | CC50 (EV-D68 [2]) [µM] | CC50 at 28 h (in vitro) [µM] | EC50 [3] [µM] | CC50 [4] [µM] | EC50 [5] [µM] | EC50 [6] [µM] | EC50 (EV-D68 [7]) [µM] | EC50 (Enterovirus A71 EV-71) [µM] | IC50 (DNA Pol γ) [µM] | IC50 (DNA Pol α) [µM] | IC50 [8] [µM] | SNIR [9] [%]
1 | COC(=O)[C@H](C)N[P@](=O)(OC[C@@]1(C#N)O[C@@H](c2ccc3c(N)ncnn23)[C@H](OC(=O)C(C)C)[C@@H]1OC(=O)C(C)C)Oc1ccccc1 [compound 1, GS-7682] | > 2 | 0.054 ± 0.002 | > 2 | > 2 | 21.1 ± 4.4 | 0.21 ± 0.05 | 22.2 ± 6.3 | 0.061 ± 0.006 | > 2 | 0.09 ± 0.06 | 0.083 ± 0.035 |  |  |  | 
2 | N#C[C@]1(COP(=O)(O)OP(=O)(O)OP(=O)(O)O)O[C@@H](c2ccc3c(N)ncnn23)[C@H](O)[C@@H]1O [2-NTP, ((2R,3S,4R,5S)-5-(4-Aminopyrrolo[2,1-f][1,2,4]triazin-7-yl)-2-cyano-3,4-dihydroxytetrahydrofuran-2-yl)methyl triphosphate] |  |  |  |  |  |  |  |  |  |  |  | > 200 | > 200 | > 200 | 0.8
